Laboratory results reported in patent US20210205401A1, “SYNERGISTIC DIETARY SUPPLEMENT COMPOSITIONS FOR THE PREVENTION, TREATMENT OR CONTROL OF INFLAMMATORY DISORDERS” (LAILA NUTRACEUTICALS, priority 2014, published 2021).

Key:
[1] = tested on: Freund's Complete Adjuvant induced arthritis model of Sprague Dawley (SD) rats; assay: In-vivo anti-inflammatory activity of Composition-1, Freund's Complete Adjuvant induced arthritis model (Example 17); details: Composition-1 200 mg/kg body weight, Prednisolone 10 mg/kg, daily for 35 days, vs CMC control
Description: The in-vivo anti-inflammatory activity of composition-1, comprising the water extract of 50 g of Terminalia chebula, 25 g of methanol extract of Curcuma longa, 25 g of Boswellia serrata non-acidic resin extract (BNRE), so that their percentages in the composition are 50%, 25% and 25% respectively was evaluated by an in-vivo study in Freund's Complete Adjuvant induced arthritis model of Sprague Dawley (SD) rats.
(§1) Prednisolone was used as a positive control. The healthy male SD rats were selected and randomly divided into four groups containing six animals per group. The treatment group rats were supplemented daily with 200 mg/kg body weight of Composition-1 for 35 days. The positive control group was supplemented daily with Prednisolone at 10 mg/kg body weight. All supplements were diluted in 10 mL of 1% CMC for administration. The animals of control group received same volume of 1% CMC. At the 7th day, Freund's Complete Adjuvant (FCA) was injected subcutaneously in the sub-plantar region of the left hind paw of each animal. Paw volumes and weight bearing capacities were respectively measured using Plethysmography equipment and Incapacitance Meter on the day of FCA injection and on 35th day of treatment. The difference in volume of paw edema is considered as the inflammatory response. […]

[2] = tested on: Freund's Complete Adjuvant induced arthritis model of Sprague Dawley rats; assay: In-vivo anti-inflammatory activity of Composition-7, Freund's Complete Adjuvant induced arthritis model (Example 18); details: Composition-7 200 mg/kg body weight p.o., Prednisolone 10 mg/kg, daily for 35 days, vs CMC control
Description: The in-vivo anti-inflammatory activity of composition-7, comprising the water extract of 36 g of Terminalia chebula, 18 g of methanol extract of Curcuma longa, 18 g of Boswellia serrata non-acidic resin extract (BNRE), 18 g of Boswellia serrata extract standardized to 75%-85% total acids by volumetric assay which contain 5% 3-O-acetyl-11-keto-β-boswellic acid (AKBA) and 10 g of excipients [Microcrystalline cellulose (MCC) and Syloid], so that their percentages in the composition are 36%, 18%, 18%, 18% and 10% respectively was evaluated by an in-vivo study in Freund's Complete Adjuvant induced arthritis model of Sprague Dawley rats.
as §1, with “Composition-7” for “Composition-1”, “At the 7th day, Freund's Complete Adjuvant (FCA) was injected subcutaneously in the sub-plantar region of the left hind paw of each animal.” left out, “treatment.” for “treatment. The difference in volume of paw edema is considered as the inflammatory response.”

C[C@]12C=CC(=O)C=C1CC[C@@H]1[C@@H]2[C@@H](O)C[C@@]2(C)[C@H]1CC[C@]2(O)C(=O)CO [Prednisolone]
% inhibition of Paw edema [1]: 72.73% | % inhibition of Paw edema [2]: 68.67%
